From patent publication US8853230B2, “Inhibitors of JAK” (Portola Pharmaceuticals, Inc., priority 2009, dated 2014)

Experiments:
Format in all cases: biochemical
JAK1 = biological target: T1, JAK1 (Homo sapiens, UniProt P23458); assay: Z'-LYTE kinase assay, JAK1 tyrosine phosphorylation activity; conditions: read-out: JAK 1 IC50
T1 construct: 5 μl of catalytic domain recombinant Kinase enzyme+Tyr peptide substrate (Invitrogen, Calif.); purchased Invitrogen
Method in brief: (§1)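 Catalytic-domain recombinant enzymes phosphorylate a coumarin/fluorescein-labelled Tyr6 peptide for 1 h at room temperature in the presence of ATP and compound (1% DMSO). Development Reagent then cleaves non-phosphorylated peptide over 1 h, and emission ratio 445/520 nm (ex 400 nm) gives percent phosphorylation; IC50 by 4-parameter logistic model.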

JAK2 = biological target: T2, JAK2 (Homo sapiens, UniProt O60674); assay: Z'-LYTE kinase assay, JAK2 tyrosine phosphorylation activity
T2 construct: 5 μl of catalytic domain recombinant Kinase enzyme+Tyr peptide substrate (Invitrogen, Calif.); purchased Invitrogen
Method in brief: as §1

JAK3 = biological target: T3, JAK3 (Homo sapiens, UniProt P52333); assay: Z'-LYTE kinase assay, JAK3 tyrosine phosphorylation activity
T3 construct: 5 μl of catalytic domain recombinant Kinase enzyme+Tyr peptide substrate (Invitrogen, Calif.); purchased Invitrogen
Method in brief: as §1

TYK2 = biological target: T4, TYK2 (Homo sapiens, UniProt P29597); assay: Z'-LYTE kinase assay, TYK2 tyrosine phosphorylation activity
T4 construct: 5 μl of catalytic domain recombinant Kinase enzyme+Tyr peptide substrate (Invitrogen, Calif.); purchased Invitrogen
T4 sequence (P29597 897-1176 limits assumed): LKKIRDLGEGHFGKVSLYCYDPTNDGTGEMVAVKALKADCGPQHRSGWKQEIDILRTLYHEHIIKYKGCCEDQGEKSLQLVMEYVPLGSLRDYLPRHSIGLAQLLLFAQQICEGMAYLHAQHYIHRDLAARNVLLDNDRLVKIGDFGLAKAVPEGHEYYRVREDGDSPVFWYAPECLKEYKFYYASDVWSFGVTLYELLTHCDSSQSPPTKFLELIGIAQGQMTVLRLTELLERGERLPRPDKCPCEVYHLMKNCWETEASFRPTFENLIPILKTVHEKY
Method in brief: as §1

T2 sequence (O60674 849-1124 limits assumed): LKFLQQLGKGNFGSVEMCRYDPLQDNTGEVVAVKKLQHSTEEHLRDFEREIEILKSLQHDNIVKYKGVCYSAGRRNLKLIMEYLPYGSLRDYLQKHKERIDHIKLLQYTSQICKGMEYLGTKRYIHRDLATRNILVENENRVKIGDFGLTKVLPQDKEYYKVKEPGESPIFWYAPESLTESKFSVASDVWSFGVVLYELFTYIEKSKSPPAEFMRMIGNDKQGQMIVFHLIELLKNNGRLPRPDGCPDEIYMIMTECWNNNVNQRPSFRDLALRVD
T1 sequence (P23458 875-1153 limits assumed): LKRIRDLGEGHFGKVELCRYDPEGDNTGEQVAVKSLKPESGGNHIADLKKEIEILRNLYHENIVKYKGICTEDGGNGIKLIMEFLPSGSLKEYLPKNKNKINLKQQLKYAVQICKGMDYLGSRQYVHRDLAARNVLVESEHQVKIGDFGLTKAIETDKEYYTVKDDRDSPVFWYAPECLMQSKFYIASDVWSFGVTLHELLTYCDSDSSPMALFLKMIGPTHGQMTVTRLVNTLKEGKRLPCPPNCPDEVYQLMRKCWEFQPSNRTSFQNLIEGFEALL
T3 sequence (P52333 822-1111 limits assumed): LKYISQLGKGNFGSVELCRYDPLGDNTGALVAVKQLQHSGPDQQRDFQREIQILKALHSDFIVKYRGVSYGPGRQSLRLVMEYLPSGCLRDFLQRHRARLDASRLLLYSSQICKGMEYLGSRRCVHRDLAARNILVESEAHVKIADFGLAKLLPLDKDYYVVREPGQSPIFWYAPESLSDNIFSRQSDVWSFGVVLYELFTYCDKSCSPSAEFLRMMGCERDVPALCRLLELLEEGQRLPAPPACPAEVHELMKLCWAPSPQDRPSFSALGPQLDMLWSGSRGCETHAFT

SMILES	IC50 (JAK1) [nM]	IC50 (JAK2) [nM]	IC50 (JAK3) [nM]	IC50 (TYK2) [nM]
CC(=O)Nc1cc(Nc2ncc(C(N)=O)c(Nc3cccc4nsnc34)n2)ccc1OCCN(C)C [Example 230, 2-(3-acetamido-4-(2-(dimethylamino)ethoxy)phenylamino)-4-(benzo[c][1,2,5]thiadiazo-4-ylamino)pyrimidine-5-carboxamide]	10 to 100	1 to 10	1 to 10	10 to 100
CC(=O)Nc1cccc(Nc2ncc(C(N)=O)c(NCC(C)C)n2)c1 [Example 235, 2-(3-acetamidophenylamino)-4-(isobutylamino)pyrimidine-5-carboxamide]	10 to 100	10 to 100	1 to 10	1 to 10
CC(C)CNc1nc(Nc2ccc(Cl)c(NC(=O)N3CCCC3)c2)ncc1C(N)=O [Example 236, 2-(4-chloro-3-(pyrrolidine-1-carboxamido)phenylamino)-4-(isobutylamino)pyrimidine-5-carboxamide]	10 to 100	10 to 100	10 to 100	10 to 100
CC[C@@H](C)Nc1nc(Nc2ccc(Cl)c(NC(=O)N3CCCC3)c2)ncc1C(N)=O [Example 237, (R)-4-(sec-butylamino)-2-(4-chloro-3-(pyrrolidine-1-carboxamido)phenylamino)pyrimidine-5-carboxamide]	10 to 100	10 to 100	1 to 10	10 to 100
CC[C@@H](C)Nc1nc(Nc2cccc(NC(C)=O)c2)ncc1C(N)=O [Example 238, (R)-2-(3-acetamidophenylamino)-4-(sec-butylamino)pyrimidine-5-carboxamide]	1 to 10	1 to 10	< 1	1 to 10
COc1ccc(Nc2ncc(C(N)=O)c(NCc3ccccc3)n2)cc1N(C)C(=O)N1CCCC1 [Example 239, 4-(benzylamino)-2-(4-methoxy-3-(N-methylpyrrolidine-1-carboxamido)phenylamino)pyrimidine-5-carboxamide]	100 to 1000	10 to 100	10 to 100	10 to 100
COc1ccc(Nc2ncc(C(N)=O)c(NCc3cccc(F)c3)n2)cc1N(C)C(=O)N1CCCC1 [Example 240, 4-(3-fluorobenzylamino)-2-(4-methoxy-3-(N-methylpyrrolidine-1-carboxamido)phenylamino)pyrimidine-5-carboxamide]	> 1000	> 1000	100 to 1000	> 1000
CN(C(=O)N1CCCC1)c1cc(Nc2ncc(C(N)=O)c(NCc3ccccc3)n2)ccc1Cl [Example 241, 4-(benzylamino)-2-(4-chloro-3-(N-methylpyrrolidine-1-carboxamido)phenylamino)pyrimidine-5-carboxamide]	100 to 1000	100 to 1000	10 to 100	100 to 1000
CN(C(=O)N1CCCC1)c1cc(Nc2ncc(C(N)=O)c(NCc3cccc(F)c3)n2)ccc1Cl [Example 242, 2-(4-chloro-3-(N-methylpyrrolidine-1-carboxamido)phenylamino)-4-(3-fluorobenzylamino)pyrimidine-5-carboxamide]	> 1000	> 1000	100 to 1000	> 1000
CC(=O)Nc1cc(Nc2ncc(C(N)=O)c(Nc3cccc4nsnc34)n2)ccc1OCCCN1CCCCC1 [Example 243]	10 to 100	1 to 10	1 to 10	1 to 10
CC(=O)Nc1cccc(Nc2ncc(C(N)=O)c(N[C@@H](C)C(C)C)n2)c1 [Example 247, (S)-2-(3-acetamidophenylamino)-4-(3-methylbutan-2-ylamino)pyrimidine-5-carboxamide]	10 to 100	10 to 100	10 to 100	10 to 100
CCC(C)CNc1nc(Nc2cccc(NC(C)=O)c2)ncc1C(N)=O (stereo not shown) [Example 249, 2-(3-acetamidophenylamino)-4-(2-methylbutylamino)pyrimidine-5-carboxamide]	10 to 100	1 to 10	< 1	1 to 10
CCC(C)CNc1nc(Nc2ccc(Cl)c(NC(=O)N3CCCC3)c2)ncc1C(N)=O (stereo not shown) [Example 250]	10 to 100	100 to 1000	1 to 10	10 to 100
CC(=O)Nc1cccc(Nc2ncc(C(N)=O)c(NCCC(C)C)n2)c1 [Example 251, 2-(3-acetamidophenylamino)-4-(isopentylamino)pyrimidine-5-carboxamide]	10 to 100	10 to 100	1 to 10	1 to 10
CC(=O)Nc1cccc(Nc2ncc(C(N)=O)c(N[C@H](C)C(C)C)n2)c1 [Example 252, (R)-2-(3-acetamidophenylamino)-4-(3-methylbutan-2-ylamino)pyrimidine-5-carboxamide]	1 to 10	1 to 10	< 1	< 1
CC(C)[C@@H](C)Nc1nc(Nc2ccc(Cl)c(NC(=O)N3CCCC3)c2)ncc1C(N)=O [Example 253, (R)-2-(4-chloro-3-(pyrrolidine-1-carboxamido)phenylamino)-4-(3-methylbutan-2-ylamino)pyrimidine-5-carboxamide]	10 to 100	10 to 100	1 to 10	1 to 10
C[C@@H](Nc1nc(Nc2cccc(NC(=O)N3CCN(C)CC3)c2)ncc1C(N)=O)c1ccccc1 [Example 254, (R)-2-(3-(4-methylpiperazine-1-carboxamido)phenylamino)-4-(1-phenylethylamino)pyrimidine-5-carboxamide]	10 to 100	1 to 10	1 to 10	10 to 100
C[C@@H](Nc1nc(Nc2cccc(NC(=O)N3CCOCC3)c2)ncc1C(N)=O)c1ccccc1 [Example 255, (R)—N-(3-(5-carbamoyl-4-(1-phenylethylamino)pyrimidin-2-ylamino)phenyl)morpholine-4-carboxamide]	10 to 100	1 to 10	< 1	10 to 100
CC(=O)Nc1cc(Nc2ncc(C(N)=O)c(Nc3cccc4c3cnn4C)n2)ccc1OCCN1CCCC1 [Example 256, 2-(3-acetamido-4-(2-(pyrrolidin-1-yl)ethoxy)phenylamino)-4-(1-methyl-1H-indazol-4-ylamino)pyrimidine-5-carboxamide]	10 to 100	1 to 10	1 to 10	10 to 100
N#CCC(=O)Nc1cccc(Nc2ncc(C(N)=O)c(NCc3cccc(F)c3)n2)c1 [Example 257, 2-(3-(2-cyanoacetamido)phenylamino)-4-(3-fluorobenzylamino)-pyrimidine-5-carboxamide]	10 to 100	1 to 10	< 1	1 to 10
CN1CCN(C(=O)Nc2cccc(Nc3ncc(C(N)=O)c(NCc4cccc(F)c4)n3)c2)CC1 [Example 258, 4-(3-fluorobenzylamino)-2-(3-(4-methylpiperazine-1-carboxamido)phenylamino)pyrimidine-5-carboxamide]	10 to 100	1 to 10	< 1	1 to 10
NC(=O)c1cnc(Nc2cccc(NC(=O)N3CCOCC3)c2)nc1NCc1cccc(F)c1 [Example 259]	10 to 100	1 to 10	1 to 10	1 to 10
CC(=O)Nc1cc(Cl)cc(Nc2ncc(C(N)=O)c(NCc3ccccc3)n2)c1 [Example 260, 2-(3-acetamido-5-chlorophenylamino)-4-(benzylamino)pyrimidine-5-carboxamide]	> 1000	100 to 1000	10 to 100	10 to 100
CC(=O)Nc1cc(Cl)cc(Nc2ncc(C(N)=O)c(NCc3cccc(F)c3)n2)c1 [Example 261, 2-(3-acetamido-5-chlorophenylamino)-4-(3-fluorobenzylamino)pyrimidine-5-carboxamide]	> 1000	10 to 100	10 to 100	10 to 100
CC(=O)Nc1cccc(Nc2ncc(C(N)=O)c(NCC3CCC3)n2)c1 [Example 262, 2-(3-acetamidophenylamino)-4-(cyclobutylmethylamino)pyrimidine-5-carboxamide]	10 to 100	10 to 100	1 to 10	1 to 10
NC(=O)c1cnc(Nc2ccc(Cl)c(NC(=O)N3CCCC3)c2)nc1NCC1CCC1 [Example 263, 2-(4-chloro-3-(pyrrolidine-1-carboxamido)phenylamino)-4-(cyclobutylmethylamino)pyrimidine-5-carboxamide]	> 1000	> 1000	> 1000	> 1000
CC(=O)Nc1cccc(Nc2cc(N[C@H](C)c3ccccc3)c(C(N)=O)cn2)c1 [Example 322, (R)-6-(3-acetamidophenylamino)-4-(1-phenylethylamino)nicotinamide]	100 to 1000	100 to 1000	10 to 100	100 to 1000
CC(=O)Nc1cccc(Nc2cc(NCC(C)C)c(C(N)=O)cn2)c1 [Example 323, 6-(3-acetamidophenylamino)-4-(isobutylamino)nicotinamide]	100 to 1000	100 to 1000	10 to 100	10 to 100
